pEC50: −log10 of the molar value. Like-named read-outs stand apart in the source and are kept apart here. Where only a bound is given, the exact number is not on record here.

For assay [1], the target named is DYRK1A kinase (Homo sapiens (Human), UniProt Q13627). Put plainly: DYRK1A kinase assay (Ser/Thr 18 peptide Z-lyte, FRET).
Experimental: This is a non-radioactive assay using fluorescence resonance energy transfer (FRET) between coumarin and fluorescein to detect kinase activity which is represented as a ratio of coumarin emission/fluorescein emission.
The mixture was allowed to incubate with the representative compounds for one hour at room temperature. All reactions were performed in duplicate. Unphosphorylated (“0% Control”) and phosphorylated (“100% control”) forms of Ser/Thr 18 served as control reactions. Additionally, an 11-point dose-response curve of Staurosporine (1 uM top) was run to serve as a positive compound control.
After incubation, Development Reagent A was diluted in Development Buffer then added to the reaction and allowed to further incubate for one hour at room temperature.
The percent phosphorylation was then calculated using the following formula: [1−((Em ratio×F100%)−C100%)/((C0%−C100%)+(Em ratio×(F100%−F0%)))]. Dose-response curves were generated and inhibitory concentration (IC50) values were calculated using non-linear regression curve fit in the Dotmatics' Studies Software (Bishops Stortford, UK).
The subject of assay [2] is LL29 cells (primary human fibroblasts derived from IPF patients), α-smooth muscle actin. Put plainly: Inhibition of fibrotic process: αSMA in TGF-β1-treated primary human fibroblasts from IPF patients (LL29 cells). The conditions noted are these: Homo sapiens, Fibroblast; for pEC50: 96 h, % αSMA-positive LL29 cells, TGF-β1 20 ng/mL, 4 days; for inhibition at 10 µM: read-out: percent inhibition at 10 μM. In kind it is cell-based. An excerpt:
Representative compounds were screened using primary human fibroblasts (derived from IPF patients) treated with TGF-β1 to determine their ability to inhibit the fibrotic process.
Primary human fibroblasts derived from IPF patients (LL29 cells) [^1Xiaoqiu Liu, et. al., “Fibrotic Lung Fibroblasts Show Blunted Inhibition by cAMP Due to Deficient cAMP Response Element-Binding Protein Phosphorylation”, Journal of Pharmacology and Experimental Therapeutics (2005), 315(2), 678-687; ^2Watts, K. L., et. al., “RhoA signaling modulates cyclin D1 expression in human lung fibroblasts; implications for idiopathic pulmonary fibrosis”, Respiratory Research (2006), 7(1), 88] were obtained from American Type Culture Collection (ATCC) and expanded in F12 medium supplemented with 15% Fetal Bovine Serum and 1% Penicillin/Streptomycin.
Each compound was dissolved in DMSO as a 10 mM stock and used to prepare compound source plates. Serial dilution (1:2, 11-point dose-response curves from […] to 0.94 nM) and compound transfer was performed using the ECHO 550 (Labcyte, Sunnyvale, Calif.) into 384-well clear bottom assay plates (Greiner Bio-One) with appropriate DMSO backfill for a final DMSO concentration of 0.1%. LL29 cells were plated at 1,500 cells/well in 70 μL/well F12 medium supplemented with 1% Fetal Bovine Serum. TGF-β1 (Peprotech; 20 ng/mL) was added to the plates to induce fibrosis (ref. 1 and 2 above). Wells treated with TGF-31 and containing DMSO were used as positive control, and cells with only DMSO were negative control. Cells were incubated at 37° C. and 5% CO2 for 4 days. Following incubation for 4 days, SYTOX green nucleic acid stain (Life Technologies [Thermo Fisher Scientific]) was added to the wells at a final concentration of 1 μM and incubated at room temperature for 30 min. Cells were then fixed using 4% formaldehyde (Electron Microscopy Sciences), washed 3 times with PBS followed by blocking and permeabilization using 3% Bovine Serum Albumin (BSA; Sigma) and 0.3% Triton X-100 (Sigma) in PBS. Cells were then stained with antibody specific to α-smooth muscle actin (αSMA; Abcam) (ref. 1 and 2 above) in 3% Bovine Serum Albumin (BSA; Sigma) and 0.3% Triton X-100 (Sigma) in PBS, and incubated overnight at 4° C. Cells were then washed 3 times with PBS, followed by incubation with Alexa Flor-647 conjugated secondary antibody (Life Technologies [Thermo Fisher Scientific]) and DAPI in 3% Bovine Serum Albumin (BSA; Sigma) and 0.3% Triton X-100 (Sigma) in PBS at room temperature for 1 hour. Cells were then washed 3 times with PBS and plates were sealed for imaging. αSMA staining was imaged by excitation at 630 nm and emission at 665 nm and quantified using the Compartmental Analysis program on the CellInsight CX5 (Thermo Scientific). Dead or apoptotic cells were excluded from analysis based on positive SYTOX green staining. % of total cells positive for αSMA were counted in each well and normalized to the average of 11 wells treated with TGF-β1 on the same plate using Dotmatics' Studies Software.

For assay [3], the target named is GSK3β kinase (Homo sapiens (Human), UniProt P49841). Nature of the assay: GSK3β kinase assay (Ser/Thr 09 peptide Z-lyte, FRET).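 Note: Coumarin/fluorescein emission ratio converted to percent phosphorylation against unphosphorylated (0%) and phosphorylated (100%) controls, 1 h compound incubation at room temperature, 11-point threefold dilutions from 10 µM, run in duplicate.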 Type of assay: biochemical. As to conditions: method text calls the value IC50.
Experimental: Representative compounds were screened using the assay procedure for GSK30 kinase activity as described below.
Each compound is dissolved in DMSO as a 10 mM stock and used to prepare compound source plates. Serial dilution (1:3, 11-point dose-response curves from 10 M to 0.0003 μM) and compound transfer was performed using the ECHO 550 (Labcyte, Sunnyvale, Calif.) into 1536-well black-walled round bottom plates (Corning).
This is a non-radioactive assay using fluorescence resonance energy transfer (FRET) between coumarin and fluorescein to detect kinase activity which is represented as ratio of coumarin emission/fluorescein emission.
The mixture is allowed to incubate with the representative compounds for one hour at room temperature. All reactions were performed in duplicate. Unphosphorylated (“0% Control”) and phosphorylated (“100% control”) forms of Ser/Thr 18 serve as control reactions.
After incubation, diluted Development Buffer is added to the reaction and allowed to further incubate for one hour at room temperature.
The percent phosphorylation is then calculated using the following formula: [1−((Em ratio×F100%)−C100%)/((C0%−C100%)+(Em ratio×(F100%−F0%)))].
Dose-response curves are generated and inhibitory concentration (IC50) values are calculated using non-linear regression curve fit in the Dotmatics' Studies Software (Bishops Stortford, UK).
Assay [4] relates to Tau phosphorylation at Ser396 (pSer396), SH-SY5Y cells. Put plainly: Tau phosphorylation at Ser396 (pSer396) in SH-SY5Y cells, ELISA/western blot.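 Note: cell lysates probed for reduced Tau pSer396 via ELISA (colorimetric) or western blot (chemiluminescence), both with one shared pSer396 antibody, EC50 for lowering phosphorylation.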 In kind it is cell-based, human. As to conditions: Homo sapiens; SH-SY5Y cells, overnight (16-18 h); read-out: pSer396 Tau EC50. (In general: In an ELISA, binding on a coated surface is turned into a signal by an enzyme label.)
Experimental: Two days before treatment, cells were seeded onto 96 well plates at 5×10^4 cells/well.
Wells were visually checked for cell death or change in morphology and supernatants were tested for cytotoxicity by measurement of lactate dehydrogenase release (LDH, CytoToxOne kit, Promega) if necessary.
Cells were lysed with RIPA buffer complemented with phosphatase and protease inhibitors then lysates were spun down at 12,000 g for 10 min to remove any cellular debris. Lysates are then either directly tested for pSer396 by ELISA (Life Technology, Kit KHB7031) or loaded on NuPage Bis-Tris gels for western blot analysis. Colorimetric detection of ELISA signal is performed by Cytation3 plate reader (Biotek) and the chemiluminescence signal for HRP-linked antibodies used in western blotting is detected using a Carestream Image Station. The same pSer396 antibody is used for detection of pTau in both assays.
Assay [5] relates to IL-6. Nature of the assay: IL-6 inhibition in LPS-stimulated human peripheral blood mononuclear cells (HTRF). Type of assay: cell-based. As to conditions: Homo sapiens, PBMC; for pEC50: IL-6, LPS-stimulated huPBMCs, HTRF. How it is done:
Fresh Normal PB MNC (Catalog # PB001, AllCells, Alameda, Calif.) were shipped overnight at 4° C. and resuspended in Roswell Park Memorial Institute (RPMI) 1640 Medium, with GlutaMAX Supplement (Catalog #61870127, ThermoFisher Scientific, Waltham, Mass.) supplemented with 1% Penicillin-Streptomycin (Catalog #151401633 ThermoFisher Scientific, Waltham, Mass.) and 1% fetal bovine serum (FBS) (Catalog #16140089, ThermoFisher Scientific, Waltham, Mass.) assay media.
Fresh normal human peripheral blood mononuclear cells (huPBMCs) were resuspended in 1% FBS-RPMI assay media with 1% Penicillin-Streptomycin 1% to a cell concentration of 1×10e6 cells/mL. Each compound was dissolved in DMSO (Catalog # D8418-100 ml, Sigma-Aldrich, St. Louis, Mo.) as a 10 mM stock and used to prepare compound source plates. Serial dilution (1:3, 10-point dose-response curves starting from 10 μM) and compound transfer was performed using the ECHO 550 (Labcyte, Sunnyvale, Calif.) into 384-well white Proxiplate-Plus assay plates (Catalog #6008289, PerkinElmer, Shelton, Conn.) with appropriate DMSO backfill for a final DMSO concentration of 0.25%. huPBMCs were plated at 5000 cells/well in the 384-well Proxiplate-Plus assay plates and incubated at 37° C.-5% CO2 for 2 hours. 50 ng/mL of Lipopolysaccharides from Escherichia coli 0111:B4 (Catalog # L5293-2 ML, Sigma-Aldrich, St. Louis, Mo.) was added after 2 hours and cells were incubated for another 22 hours at 37° C.-5% CO2. After 22 hour incubation, a mixture of anti-IL6 XL665 and anti-IL-6 Cryptate diluted in reconstitution buffer (Catalog #62IL6PEC, Cisbio Inc., Bedford, Mass.) was added to each well. Following incubation for 3 hours at room temperature, Homogeneous Time-Resolved Fluorescence (HTRF) was measured using the Envision (Perkin Elmer, Shelton, Conn.) at 665 nm and […]. The ratio of fluorescence at 665 nm to 620 nm was used as a readout for IL-6 quantification. All samples were processed in duplicate. Readings were normalized to DMSO treated cells and normalized activities were utilized for EC50 calculations. EC50 was determined using software generated by Dotmatics Limited (Windhill Bishops Stortford Herts, UK) using the Levenberg-Marquardt 4 parameter fitting procedure with finite different gradients.
On the technique in general: In TR-FRET formats the signal depends on donor and acceptor labels being close together.

Assay [6] deals with Wnt activity (Sp5-Luc reporter in SW480 colon carcinoma cells). Nature of the assay: Wnt activity screening assay (Sp5-Luc reporter gene assay). Type of assay: cell-based, human. As to conditions: Homo sapiens; for pEC50: Sp5-Luc reporter, SW480 cells, 36 to 48 hours; for inhibition at 10 µM: SW480, read-out: percent inhibition at 10 μM. The source says:
The screening assay for Wnt activity is described as follows. Reporter cell lines can be generated by stably transducing cancer cell lines (e.g., colon cancer) or primary cells (e.g., IEC-6 intestinal cells) with a lentiviral construct that includes a Wnt-responsive promoter driving expression of the firefly luciferase gene.
SW480 colon carcinoma cells were transduced with a lentiviral vector expressing luciferase with a human Sp5 promoter consisting of a sequence of eight TCF/LEF binding sites. SW480 cells stably expressing the Sp5-Luc reporter gene and a hygromycin resistance gene were selected by treatment with 150 μg/mL of hygromycin for 7 days. These stably transduced SW480 cells were expanded in cell culture and used for all further screening activities. Each compound was dissolved in DMSO as a 10 mM stock and used to prepare compound source plates. Serial dilution (1:3, 10-point dose-response curves starting from 10 μM) and compound transfer was performed using the ECHO 550 (Labcyte, Sunnyvale, Calif.) into 384-well white solid bottom assay plates (Greiner Bio-One) with appropriate DMSO backfill for a final DMSO concentration of 0.1%. For Sp5-Luc reporter gene assays, the cells were plated at 4,000 cells/well in 384-well plates with a DMEM medium containing 1% fetal bovine serum, and 1% Penicillin-Streptomycin and incubated for 36 to 48 hours at 37° C. and 5% CO2. Following incubation, 15 μl of BriteLite Plus luminescence reagent (Perkin Elmer) was added to each well of the 384-well assay plates. The plates were placed on an orbital shaker for 2 min and then luminescence was quantified using the Envision (Perkin Elmer) plate reader. Readings were normalized to DMSO only treated cells, and normalized activities were utilized for EC50 calculations using the dose-response log (inhibitor) vs. response -variable slope (four parameters) nonlinear regression feature available in GraphPad Prism 5.0 (or Dotmatics).
A general note: A reporter such as luciferase makes a cellular process visible.

The test system of assay [7] is SW480 colon carcinoma cells. Nature of the assay: Cell viability assay (CellTiter-Glo) in SW480 cells.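 For all read-outs here: SW480 cells stably carrying an Sp5-luciferase TCF/LEF reporter, luminescent ATP signal as viability measure, DMSO-treated cells as control.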 The conditions noted are these: Homo sapiens; for pEC50: 96 h, cell viability, SW480 cells, four days, CellTiter-Glo; for inhibition at 10 µM: SW480, read-out: percent inhibition at 10 μM. In kind it is cell-based, human.
The mark [8] stands for this setting: DYRK1A kinase, method text calls the value IC50.

Sequence of GSK3β kinase (P49841 whole entry): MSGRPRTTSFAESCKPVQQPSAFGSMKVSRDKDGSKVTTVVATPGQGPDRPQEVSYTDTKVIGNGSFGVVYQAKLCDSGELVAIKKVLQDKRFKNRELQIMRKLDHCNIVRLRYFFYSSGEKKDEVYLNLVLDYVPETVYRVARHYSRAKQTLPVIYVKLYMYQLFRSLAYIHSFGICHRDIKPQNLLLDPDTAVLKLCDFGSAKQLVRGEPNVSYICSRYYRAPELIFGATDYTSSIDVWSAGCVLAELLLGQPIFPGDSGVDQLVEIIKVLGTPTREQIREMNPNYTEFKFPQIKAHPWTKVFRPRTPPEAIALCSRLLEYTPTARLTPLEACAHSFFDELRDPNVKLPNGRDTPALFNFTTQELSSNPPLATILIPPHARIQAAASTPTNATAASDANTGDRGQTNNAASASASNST

A word on the pEC50: it is the negative decadic logarithm of the EC50, by convention in mol/L. In the case of `Cc1nnc(-c2ccc3cnc(NC(=O)[C@H]4CC[C@H](N5CCN(C)CC5)CC4)cc3c2)s1` [Compound 194, trans-N-(6-(5-methyl-1,3,4-thiadiazol-2-yl)isoquinolin-3-yl)-4-(4-methylpiperazin-1-yl)cyclohexane-1-carboxamide], the pEC50 in assay [1] (setting [8]) was 8.52; in assay [2], 6.48; in assay [3], 7.92; in assay [4], 6.66; in assay [5] it was 5.51; in assay [6], 6.17. In assay [7], this compound had a pEC50 of 5.90.
Take `CC(C)CN1CCC(C(=O)Nc2cc3cc(-c4ccn(C)n4)ccc3cn2)CC1` [Compound 7, 1-Isobutyl-N-(6-(1-methyl-1H-pyrazol-3-yl)isoquinolin-3-yl)piperidine-4-carboxamide]: the pEC50 in assay [1] (setting [8]) is 6.42; in assay [2], 5.57; in assay [3] it was 5.72; in assay [5], 5.03; in assay [6], less than 5.00; in assay [7], less than 5.00. Further, the inhibition at 10 µM turned out to be 32.9% in assay [6] and 42.5% in assay [7].
Regarding `Cc1ncc(-c2cc(F)c3cnc(NC(=O)[C@H]4CC[C@H](N5CCOCC5)CC4)cc3c2)o1` [Compound 19, trans-N-(8-Fluoro-6-(2-methyloxazol-5-yl)isoquinolin-3-yl)-4-morpholinocyclohexane-1-carboxamide], the pEC50 is 6.96 in assay [1] (setting [8]); less than 5.00 in assay [2]; 5.93 in assay [3]; 5.49 in assay [5]; less than 5.00 in assay [6]; less than 5.00 in assay [7]. In addition, the inhibition at 10 µM in assay [2] came to 20.6%; in assay [6], 22.4%; in assay [7], 44.8%.
For the compound `Cc1ncc(-c2cc(F)c3cnc(NC(=O)N(C)C4CCN(C)CC4)cc3c2)o1` [Compound 229, 3-(8-Fluoro-6-(2-methyloxazol-5-yl)isoquinolin-3-yl)-1-methyl-1-(1-methylpiperidin-4-yl)urea], the negative logarithm of the EC50 (pEC50) in assay [1] (setting [8]) is 6.00; in assay [2], 5.00; in assay [3], 5.17; in assay [5] it was 5.05; in assay [6] it was less than 5.00; in assay [7], less than 5.00. Besides, the inhibition at 10 µM in assay [6] was determined as 0%; in assay [7], 49.5%.
Turning to `Cn1cc(-c2ccc3cnc(NC(=O)c4ccnc(N5CC[N+](C)([O-])CC5)c4)cc3c2)nn1` [Compound 224, 1-methyl-4-(4-((6-(1-methyl-1H-1,2,3-triazol-4-yl)isoquinolin-3-yl)carbamoyl)pyridin-2-yl)piperazine 1-oxide], the negative logarithm of the EC50 (pEC50) in assay [1] is 9.00; in assay [2], less than 5.00; in assay [3], 6.15; in assay [5], less than 5.00; in assay [6] it was less than 5.00; in assay [7], less than 5.00. For the same compound, the inhibition at 10 µM in assay [2] came to 13.1%; in assay [5] (read-out: percent value in parentheses below EC50 >10) it was 13.7%; in assay [6], 43.8%; in assay [7], 24.6%.
As to `Cc1ncc(-c2ccc3cnc(NC(=O)[C@H]4CC[C@H](N(C)C)CC4)cc3c2)o1` [Compound 45, trans-4-(Dimethylamino)-N-(6-(2-methyloxazol-5-yl)isoquinolin-3-yl) cyclohexane-1-carboxamide], the pEC50 in assay [1] (setting [8]) was 8.52; in assay [2], 7.02; in assay [4] it was 6.49; in assay [6], 5.73.
Regarding `[2H]c1c([2H])c(C(=O)Nc2cc3cc(-c4cncn4C)ccc3cn2)c([2H])c([2H])c1F` [Compound 81, 4-Fluoro-N-(6-(1-methyl-1H-imidazol-5-yl)isoquinolin-3-yl)benzamide-2,3,5,6-d4], the pEC50 in assay [2] is 6.51; in assay [4], 5.55; in assay [5], 5.95; in assay [6] it was less than 5.00; in assay [7] it was 6.31. The inhibition at 10 µM in assay [6] worked out at 36.3%.
On to `[2H]c1nc(NC(=O)c2ccnc(N3CCN(CC)CC3)c2)cc2cc(-c3cnn(C)c3)ccc12` [Compound 8, 2-(4-Ethylpiperazin-1-yl)-N-(6-(1-methyl-1H-pyrazol-4-yl)isoquinolin-3-yl-1-d)isonicotinamide], for which the negative-log EC50 (pEC50) was 7.02 in assay [2]; less than 5.00 in assay [4]; 6.03 in assay [5]; 7.55 in assay [6]; 7.00 in assay [7].

The values above are taken from patent publication US10604514B2, “6-(5-membered heteroaryl)isoquinolin-3-yl carboxamides and preparation and use thereof” (Samumed, LLC, priority 2017, dated 2020).
